Measurements: publication PMC7114283 (Antiviral Research, 2010)
Where two headings read alike, the source gives them in different places. Marks after values point to notes of the source that are not given here.

Legend:
[1] = tested on: TGEV
[2] = tested on: ST cells
[3] = biological target: TGEV 3CLpro (Porcine transmissible gastroenteritis coronavirus, UniProt P0C6Y5); format: biochemical, transmissible gastroenteritis virus
[4] = biological target: SARS CoV 3CLpro (Severe acute respiratory syndrome coronavirus, UniProt P0C6X7); format: biochemical
[5] = tested on: SARS CoV Urbani strain
[6] = male, Sprague-Dawley, rat, in vivo, 3 mg/kg
[7] = in vivo; conditions: male, Sprague-Dawley, rat, 3 mg/kg
[8] = in vitro; conditions: swine
[9] = tested on: TGEV; test: microbe, parasite or virus in culture; conditions: Alphacoronavirus 1
[10] = tested on: SARS CoV Urbani strain; format: cell-based, human severe acute respiratory syndrome coronavirus
[11] = tested on: Vero 76 cells
[12] = tested on: Vero 76 cells; remark: listed apart in the source

Chain of TGEV 3CLpro (P0C6Y5 2879-3180 limits assumed): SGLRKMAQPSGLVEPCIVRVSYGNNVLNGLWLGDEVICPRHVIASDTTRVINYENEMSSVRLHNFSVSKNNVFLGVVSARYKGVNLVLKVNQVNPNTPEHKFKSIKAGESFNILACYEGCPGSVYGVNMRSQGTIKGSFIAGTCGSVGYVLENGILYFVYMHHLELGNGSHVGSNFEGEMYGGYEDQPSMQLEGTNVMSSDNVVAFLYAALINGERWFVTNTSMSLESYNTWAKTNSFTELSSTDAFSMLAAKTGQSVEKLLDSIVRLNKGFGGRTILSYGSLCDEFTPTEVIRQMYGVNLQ

3,14a-dihydroxy-6,7-dimethoxyphenanthroindolizidine [Compound 1h]
EC50 [1]: 18 ± 1 nM | SI (CC50/EC50) [1]: 1719 | CC50 [2]: 31.6 µM

COc1cc2c3c(c4cc(OC)c(OC)cc4c2cc1OC)CN1CCC[C@@H]1C3 [1a′, tylophorine]
EC50 [1]: 95 ± 17 nM | SI (CC50/EC50) [1]: >1053 | CC50 ([2]; swine): > 100 µM

COc1cc2c3c(c4cc(OC)c(OC)cc4c2cc1OC)CN1CCC[C@@H]1C3 [Compound 1a, Tylophorine]
Inhibition of TGEV 3CLpro enzymatic activity [3]: did not significantly inhibit | Inhibition of SARS CoV 3CLpro enzymatic activity [4]: did not significantly inhibit | SI (CC50/EC50) [1]: >1715 | Visual assay SI (CC50/EC50) [5]: 88 | Ctrough ([6]; iv): 1.1 ng/mL | t1/2 (apparent elimination half-life) ([6]; iv): 3.9 ^b h | Ctrough ([6]; po): 3.0 ng/mL | bioavailability [7]: 65.7% | AUC(0-inf) ([7]; iv): 772 ng·h/mL | clearance ([7]; iv): 66.8 mL/min/kg | AUC(0-inf) ([7]; po): 507 ng·h/mL | Cmax ([7]; po): 31.9 ng/mL | Tmax ([7]; po): 1.8 h | CC50 [8]: > 100 µM | EC50 [9]: 58 ± 4 nM

COc1ccc2c3c(c4cc(OC)c(OC)cc4c2c1)CN1CCC[C@H]1[C@@H]3O [Compound 1e, tylophorinine]
SI (CC50/EC50) [1]: >1220 | CC50 [8]: > 100 µM | EC50 [9]: 82 ± 8 nM

interferon alfacon-1 [Infergen™]
Neutral red uptake assay EC50 [10]: 2.4 µg/mL | Visual assay EC50 [5]: <0.32 µg/mL | Visual assay SI (CC50/EC50) [5]: >320 | Visual assay CC50 [11]: >100 µg/mL | Neutral red uptake assay CC50 [12]: >130 µg/mL
